In PubChem BioAssay AID2060491 (Molecular Pharmacology Branch, DTP, NCI, 2025):
pIC50: −log10 of the molar value. Values joined by “and” are separate entries in the source; they are usually repeats but may differ in a detail not shown here. Equal entries are not always repeated.

System: 857933-349-R-J2-PDC complex spheroids, viability
Assay: Anticancer human tumor 857933-349-R-J2-PDC patient-derived colon adenocarcinoma cell line growth inhibition [GQUAD]
Conditions: for viability, T/C: stronger effect = lower value
From the text: DNA G-quadruplex Stabilizer Agents in Combinations in Complex Spheroids
A high-throughput screen of multi-cell type tumor spheroids was designed to identify active combinations of DNA G-quadruplex stabilizer agents and targeted small molecules. Complex spheroids include a stromal component modeled by human endothelial cells (HUVEC) and fibroblasts modeled by human mesenchymal stem cells (MSCs). The concentration ranges selected for each drug and investigational agent were based upon clinically achievable concentrations if the clinical Cmax of the agent was known.
Compounds. The drugs and investigational agents: pidnarulex (CX-5461; NSC782164), APTO-253 (NSC789042), BRACO-19 (NSC847499), peposertib (NSC802822), ceralasertib (NSC780249), elimusertib (NSC800525), camonsertib (NSC841442), AZD-1390 (NSC803789), olaparib (NSC753686), talazoparib (NSC767125), ART-558 (NSC835418), sotorasib (NSC818433), MRTX-1133 (NSC836407), SN-38 (NSC673596), topotecan (NSC609699), etoposide (NSC141540), doxorubicin (NSC123127), gemcitabine (NSC613327), 5-fluorouracil (NSC19893), paclitaxel (NSC125973), vemurafenib (NSC761431), panobinostat (NSC761190), R-306465 (JNJ-16241199; NSC773264), adavosertib (NSC754352), TP-3654 (NSC805149), carboplatin (NSC241240), KSQ-4279 (NSC840948), and staurosporine (NSC755774) were obtained from the National Cancer Institute (NCI) Developmental Therapeutics Program Chemical Repository (34). The FDA-approved anticancer drug set is available from the NCI Developmental Therapeutics Program. […] The stock solutions were prepared in dimethyl sulfoxide (DMSO, Sigma-Aldrich, St. Louis, MO, cat. D2650) at 800-fold the tested concentration and stored at -70 degrees C prior to their use. All drugs and investigational agents were tested over a range starting from a high concentration at or near the clinical Cmax and decreasing in half-log increments. If the clinical Cmax for an agent had not been determined, the highest concentration tested was 10 microM.
2.3 Cell Culture. All cells were maintained in an incubator at 37 degrees C and 5% CO2 with 95% humidity. The PDC lines were cultured according to standard operating procedures established by the NCI PDMR. All PDCs were thawed and cultured in Matrigel-coated flasks prepared with a working solution of 1X Ham's F-12 nutrient mix, without supplementation (Invitrogen, cat. 11765054), 100 U/mL penicillin-streptomycin (Invitrogen, cat. 15140122), and 2.5% Matrigel (Corning Inc., cat. 354248) for the first three passages. The 857933-349-R-J2-PDC line was cultured in 6C/Colon 1B media, which includes advanced DMEM/F-12 (Thermo Fisher Scientific, cat. 12634028), 10 mM HEPES (Thermo Fisher Scientific, cat. 15630080), 1X GlutaMAX supplement (Thermo Fisher Scientific, cat. 35050061), 0.1 mg/mL primocin (InvivoGen, cat. ant-pm-2), 10% defined fetal bovine serum, heat inactivated (HyClone Laboratories Inc., cat. SH30070.03HI), 50% L-WRN conditioned media (ATCC, cat. CRL-3276), 1.25 mM N-Acetyl-L-cysteine (Sigma-Aldrich, cat. A9165), 10 mM nicotinamide (Sigma-Aldrich, cat. N0636), 1X B-27 supplement (Thermo Fisher Scientific, cat. 17504044), 1X N-2 supplement (Thermo Fisher Scientific, cat. 17502048), 10 microM Y-27632 dihydrochloride (Tocris Bioscience, cat. 1254), and 50 ng/mL human EGF recombinant protein (Thermo Fisher Scientific, cat. PHG0311). The 485176-168-R4-J1-PDC line was cultured in Panc media, which includes all 6C/Colon 1B media components plus 100 ng/mL human FGF-10 (Thermo Fisher Scientific, cat. 100-26), 500 nM SB-431542 (Selleckchem, cat. S1067), and gastrin (Tocris, cat. 3006).
[…]

[1] = curve of first compound, second compound 0.0316 µM
[2] = curve of first compound, second compound 0.1 µM
[3] = curve of first compound, second compound 0.316 µM
[4] = curve of first compound, second compound 1 µM
[5] = curve of first compound, second compound 3.16 µM
[6] = curve of first compound, second compound 10 µM
[7] = second compound 0.0316 µM, first compound 0.0316 µM
[8] = second compound 0.0316 µM, first compound 0.1 µM
[9] = second compound 0.0316 µM, first compound 0.316 µM
[10] = second compound 0.0316 µM, first compound 1 µM
[11] = second compound 0.0316 µM, first compound 3.16 µM
[12] = second compound 0.0316 µM, first compound 10 µM
[13] = second compound 0.1 µM, first compound 0.0316 µM
[14] = second compound 0.1 µM, first compound 0.1 µM
[15] = second compound 0.1 µM, first compound 0.316 µM
[16] = second compound 0.1 µM, first compound 1 µM
[17] = second compound 0.1 µM, first compound 3.16 µM
[18] = second compound 0.1 µM, first compound 10 µM
[19] = second compound 0.316 µM, first compound 0.0316 µM
[20] = second compound 0.316 µM, first compound 0.1 µM
[21] = second compound 0.316 µM, first compound 0.316 µM
[22] = second compound 0.316 µM, first compound 1 µM
[23] = second compound 0.316 µM, first compound 3.16 µM
[24] = second compound 0.316 µM, first compound 10 µM
[25] = second compound 1 µM, first compound 0.0316 µM
[26] = second compound 1 µM, first compound 0.1 µM
[27] = second compound 1 µM, first compound 0.316 µM
[28] = second compound 1 µM, first compound 1 µM
[29] = second compound 1 µM, first compound 3.16 µM
[30] = second compound 1 µM, first compound 10 µM
[31] = second compound 3.16 µM, first compound 0.0316 µM
[32] = second compound 3.16 µM, first compound 0.1 µM
[33] = second compound 3.16 µM, first compound 0.316 µM
[34] = second compound 3.16 µM, first compound 1 µM
[35] = second compound 3.16 µM, first compound 3.16 µM
[36] = second compound 3.16 µM, first compound 10 µM
[37] = second compound 10 µM, first compound 0.0316 µM
[38] = second compound 10 µM, first compound 0.1 µM
[39] = second compound 10 µM, first compound 0.316 µM
[40] = second compound 10 µM, first compound 1 µM
[41] = second compound 10 µM, first compound 3.16 µM
[42] = second compound 10 µM, first compound 10 µM
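Also: spheroids exposed to compounds for one week before readout.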
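For viability, T/C in this document: percent viability relative to vehicle DMSO wells taken as 100%.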

CC1COCCN1c1cc(-c2ccnn2C)c2ccnc(-c3ccn[nH]3)c2n1 (stereo not drawn) + Cc1cnc(CNC(=O)c2c(=O)c3ccc(N4CCCN(C)CC4)nc3n3c2sc2ccccc23)cn1
pIC50 [1]: > 7.50 | pIC50 [2]: > 7.50 | pIC50 [3]: > 7.50 | pIC50 [4]: > 7.50 | pIC50 [5]: > 7.50 | pIC50 [6]: > 7.50 | viability, T/C [7]: 49.6% | viability, T/C [8]: 33.7% | viability, T/C [9]: 33.5% | viability, T/C [10]: 31.8% | viability, T/C [11]: 38.3% | viability, T/C [12]: 41.4% | viability, T/C [13]: 30.5% | viability, T/C [14]: 25.8% | viability, T/C [15]: 18.4% | viability, T/C [16]: 23.6% | viability, T/C [17]: 31% | viability, T/C [18]: 32.4% | viability, T/C [19]: 12.3% | viability, T/C [20]: 6.9% | viability, T/C [21]: 5.16% | viability, T/C [22]: 5.25% | viability, T/C [23]: 9.22% | viability, T/C [24]: 16% | viability, T/C [25]: 2.71% | viability, T/C [26]: 2.88% | viability, T/C [27]: 2.86% | viability, T/C [28]: 2.6% | viability, T/C [29]: 4.59% | viability, T/C [30]: 8.81% | viability, T/C [31]: 2.08% | viability, T/C [32]: 3.98% | viability, T/C [33]: 2.01% | viability, T/C [34]: 1.59% | viability, T/C [35]: 2.42% | viability, T/C [36]: 5% | viability, T/C [37]: 1.03% | viability, T/C [38]: 0.7% | viability, T/C [39]: 0.73% | viability, T/C [40]: 0.54% | viability, T/C [41]: 1.7% | viability, T/C [42]: 2.18%

Cc1[nH]c2ccccc2c1CCNCc1ccc(/C=C/C(=O)NO)cc1 + CN(C)c1ccc(Nc2c3ccc(NC(=O)CCN4CCCC4)cc3nc3cc(NC(=O)CCN4CCCC4)ccc23)cc1
pIC50 [1]: < 6.50 | pIC50 [2]: < 6.50 | pIC50 [3]: < 6.50 | pIC50 [4]: < 6.50 | pIC50 [5]: < 6.50 | pIC50 [6]: < 6.50 | viability, T/C (second compound 0.0316 µM, first compound 0.000999 µM): 105% | viability, T/C (second compound 0.0316 µM, first compound 0.00316 µM): 99.6% | viability, T/C (second compound 0.0316 µM, first compound 0.00999 µM): 109% | viability, T/C [7]: 101% | viability, T/C (second compound 0.0316 µM, first compound 0.0999 µM): 109% | viability, T/C [9]: 60.2% | viability, T/C (second compound 0.1 µM, first compound 0.000999 µM): 105% | viability, T/C (second compound 0.1 µM, first compound 0.00316 µM): 102% | viability, T/C (second compound 0.1 µM, first compound 0.00999 µM): 99.3% | viability, T/C [13]: 103% | viability, T/C (second compound 0.1 µM, first compound 0.0999 µM): 101% | viability, T/C [15]: 61.5% | viability, T/C (second compound 0.316 µM, first compound 0.000999 µM): 104% | viability, T/C (second compound 0.316 µM, first compound 0.00316 µM): 103% | viability, T/C (second compound 0.316 µM, first compound 0.00999 µM): 103% | viability, T/C [19]: 99.8% | viability, T/C (second compound 0.316 µM, first compound 0.0999 µM): 117% | viability, T/C [21]: 60.5% | viability, T/C (second compound 1 µM, first compound 0.000999 µM): 97.1% | viability, T/C (second compound 1 µM, first compound 0.00316 µM): 91.7% | viability, T/C (second compound 1 µM, first compound 0.00999 µM): 95.7% | viability, T/C [25]: 97.9% | viability, T/C (second compound 1 µM, first compound 0.0999 µM): 105% | viability, T/C [27]: 59.5% | viability, T/C (second compound 3.16 µM, first compound 0.000999 µM): 80.6% | viability, T/C (second compound 3.16 µM, first compound 0.00316 µM): 79.8% | viability, T/C (second compound 3.16 µM, first compound 0.00999 µM): 93.5% | viability, T/C [31]: 80.6% | viability, T/C (second compound 3.16 µM, first compound 0.0999 µM): 91.7% | viability, T/C [33]: 55.1% | viability, T/C (second compound 10 µM, first compound 0.000999 µM): 64% | viability, T/C (second compound 10 µM, first compound 0.00316 µM): 73.2% | viability, T/C (second compound 10 µM, first compound 0.00999 µM): 70% | viability, T/C [37]: 76.4% | viability, T/C (second compound 10 µM, first compound 0.0999 µM): 72.2% | viability, T/C [39]: 41.7%

O=C(NO)c1cnc(N2CCN(S(=O)(=O)c3ccc4ccccc4c3)CC2)nc1 + Cc1[nH]c2ccc(F)cc2c1-c1nc2c3cccnc3c3ncccc3c2[nH]1
pIC50 [1]: 5.82 | pIC50 [2]: 5.80 | pIC50 [3]: 5.79 | pIC50 [4]: 5.77 | pIC50 [5]: 5.80 | pIC50 [6]: 5.75 | viability, T/C [7]: 107% | viability, T/C [8]: 96.5% | viability, T/C [9]: 107% | viability, T/C [10]: 79% | viability, T/C [11]: 1.25% | viability, T/C [12]: 0.26% | viability, T/C [13]: 109% | viability, T/C [14]: 103% | viability, T/C [15]: 100% | viability, T/C [16]: 81.9% | viability, T/C [17]: 2.07% | viability, T/C [18]: 0.2% | viability, T/C [19]: 101% | viability, T/C [20]: 100% | viability, T/C [21]: 96.1% | viability, T/C [22]: 80.5% | viability, T/C [23]: 6.68% | viability, T/C [24]: 0.19% | viability, T/C [25]: 94.7% | viability, T/C [26]: 92.4% | viability, T/C [27]: 98.2% | viability, T/C [28]: 84.8% | viability, T/C [29]: 7.25% | viability, T/C [30]: 0.23% | viability, T/C [31]: 93.1% | viability, T/C [32]: 93.7% | viability, T/C [33]: 96.1% | viability, T/C [34]: 80.8% | viability, T/C [35]: 4.92% | viability, T/C [36]: 0.25% | viability, T/C [37]: 95.7% | viability, T/C [38]: 94.2% | viability, T/C [39]: 99.2% | viability, T/C [40]: 93.6% | viability, T/C [41]: 5.75% | viability, T/C [42]: 0.31%

C=CCn1c(=O)c2cnc(Nc3ccc(N4CCN(C)CC4)cc3)nc2n1-c1cccc(C(C)(C)O)n1
viability, T/C (compound 0.0316 µM): 102% and 105% and 106% | viability, T/C (compound 0.1 µM): 99.4% and 100% and 96.3% | viability, T/C (compound 0.316 µM): 95.1% and 97.1% and 97.4% | viability, T/C (compound 1 µM): 66.4% and 72.8% and 47.7% | viability, T/C (compound 3.16 µM): 26.8% and 27.4% and 8.15% | viability, T/C (compound 10 µM): 28.5% and 27% and 10.6% | pIC50 (curve of compound): 5.79 and 5.74 and 6.02
